Consider 4 compounds from patent US11911407B2, “Therapies for cardiomyopathy” (UNIVERSITY COLLEGE DUBLIN, NATIONAL UNIVERSITY OF IRELAND, priority 2013, dated 2024).

“Also recorded” adds a separate entry of the source.

The test system of assay [1] is HCF cells. The assay can be described thus: DNA demethylation with 5-aza-2′-deoxycytidine in hypoxic HCF cells, pro-fibrotic protein expression. To be noted: for expression of ASMA / expression of collagen 1 / expression of collagen 3: hypoxic fibroblasts with TGFβ; for expression of ASMA / expression of collagen 1 / expression of collagen 3 / pro-fibrotic effects of / responses to TGFβ: 1-5 μM; for pro-fibrotic effects of / responses to TGFβ: hypoxic fibroblasts, up to eight days. The class given is cell-based, human. The protocol: Where indicated, HCF cells were exposed to a 1% oxygen environment for up to 8 days using a hypoxic chamber (Coy Laboratories). The effects of 10 ng/ml recombinant TGFβ1 treatment (R&D Systems) under these conditions were investigated. When required, cells were treated for 24 hours with 1 mM of the prolyl hydroxylase inhibitor DMOG (Sigma) to simulate hypoxia through the induction of HIF under normoxic conditions. Whole cell protein lysates were generated using RIPA Lysis Buffer (Millipore), containing a protease inhibitor cocktail (Roche). Nuclear protein extracts were obtained using the Ne-PeR Nuclear and Cytoplasmic extraction Reagents, according to manufacturer's instructions (Pierce Biotechnology). Protein concentrations were determined using the BCA Protein Assay Kit (Pierce). 10-20 μg of protein lysates were denatured, reduced and resolved on SDS-polyacrylamide gels by SDS-PAGE before transfer onto 0.45 μm pore size Immobilon-P polyvinylidene fluoride (PVDF) membranes (Millipore). Membranes were incubated with blocking buffer (TBS, 0.25% Tween-20, 0.1% serum from species that secondary antibody was raised in, and 5% fat free skimmed milk) for 1 hour at room temperature. Membranes were subsequently probed overnight with either anti-ASMA (Sigma), anti-collagen 1, anti-DNMT3B (Imgenex), or anti-hypoxia inducible factor 1α (HIF-1α) (Novus Biologicals). Detection of the specific binding of the primary antibody was achieved using HRP-conjugated secondary antibodies, followed by signal detection with Immobilon Western chemiluminescent HRP substrate (Millipore) according to the manufacturer's instructions. Anti-alpha tubulin (Sigma) was used to verify equal loading. For demethylation analysis, cells were treated with 1-5 μM 5-aza-2′-deoxycytidine (5-azadc; Sigma) for up to eight days. The effect of global DNA methylation inhibition on pro-fibrotic protein expression was assessed using Western blotting.

Assay [2] deals with spontaneously hypertensive rats (SHR). Put plainly: Doppler echocardiography in rat model of hypertensive heart disease. The settings on record: SHR-5AZA vs SHR-V, 10 mg/kg i.p. alternate day, 12 weeks. It is filed as in vivo. On the procedure:
Approval from the local Animal Research Ethics Committee was sought and obtained to investigate the anti-fibrotic impact of 5-aza on cardiac function and fibrosis. Male spontaneously hypertensive rats (SHR) and their normotensive counterpart Wistar Kyote rats (WKY) were purchased from Charles River and utilised for the study. From 10 weeks of age, the animals received alternate day intra-peritoneal injection of either PBS (vehicle) or 5-aza (10 mg/kg) for 12 weeks. The 5-aza was purchased from Sigma, diluted in sterile PBS and filtered through a 0.22 μm filter. Aliquots were stored at −20° C. and were used within 5 days of reconstitution. The study design consisted of three groups of 10 animals; group 1 included 10 SHR rats who received 5-aza (SH R-5-aza); group 2 included 10 SHR rats who received PBS vehicle (SHR-V); group 3 included 10 WKY rats who received PBS vehicle (WKY-V). All rats were housed in the animal facility under identical conditions, with a 12 hour light-dark cycle. Cardiac structure and function was assessed at baseline and at the end of the study (12 weeks) using Echocardiography. During the procedure, the animals were under inhaled anaesthesia (isoflurane 2%) and body temperature was maintained using a heat mat. Echocardiography assessment was performed using a Vevo 770 High-Resolution In Vivo Micro-Imaging System (Visualsonics) with a […] transducer. M-mode and 2-dimensional (2D) images were obtained in the parasternal long- and short-axis views. The interventricular septal thickness, posterior wall thickness, and LV diameter were measured in systole and diastole at the tips of the papillary muscle. Measurements were taken over three consecutive cardiac cycles and averaged. Left ventricular mass (LVM) was calculated according to Devereux's formula and indexed to tibial length (LVMi). Blinded analysis was performed by two separate independent observers.

Assay [3] has the same test system. Put plainly: Hydroxyproline assay of total collagen in myocardium. It is filed as in vivo, rat. To be noted: SHR-5AZA vs SHR-V, 12 weeks. The protocol: (§1) Approval from the local Animal Research Ethics Committee was sought and obtained to investigate the anti-fibrotic impact of 5-aza on cardiac function and fibrosis. Male spontaneously hypertensive rats (SHR) and their normotensive counterpart Wistar Kyote rats (WKY) were purchased from Charles River and utilised for the study. From 10 weeks of age, the animals received alternate day intra-peritoneal injection of either PBS (vehicle) or 5-aza (10 mg/kg) for 12 weeks. The 5-aza was purchased from Sigma, diluted in sterile PBS and filtered through a 0.22 μm filter. Aliquots were stored at −20° C. and were used within 5 days of reconstitution. The study design consisted of three groups of 10 animals; group 1 included 10 SHR rats who received 5-aza (SH R-5-aza); group 2 included 10 SHR rats who received PBS vehicle (SHR-V); group 3 included 10 WKY rats who received PBS vehicle (WKY-V). All rats were housed in the animal facility under identical conditions, with a 12 hour light-dark cycle.

Assay [4] shares this test system. The assay can be described thus: Picrosirius red staining with automated digital quantification of perivascular collagen. It is filed as in vivo, rat. The settings on record: SHR-5AZA vs SHR-V, 12 weeks. The protocol: as §1, with “cycle. […]” for “cycle.”
The degree of collagen deposition was quantified by automated digital image analysis. […] A positive pixel count algorithm was used to automatically quantify the area occupied by the dark pink stain colours representing collagen within each scanned slide image. […] A collagen volume fraction was calculated based on the percent of dark pink collagen staining quantified within a tissue section.

For assay [5] the test system is unchanged. Put plainly: Myocyte area digital analysis of haematoxylin and eosin stained cardiac tissue. The settings on record: SHR-5AZA vs SHR-V. The class given is in vivo, rat. The protocol: FIG. 16 depicts the effect of 5AZA treatment on myocyte area in vivo. […] Male spontaneously hypertensive rats (SHR) and their normotensive counterpart Wistar Kyote rats (WKY) were purchased from Charles River and utilised for the study. From 10 weeks of age, the animals received alternate day intra-peritoneal injection of either PBS (vehicle) or 5-aza (10 mg/kg) for 12 weeks. The 5-aza was purchased from Sigma, diluted in sterile PBS and filtered through a 0.22 μm filter. Aliquots were stored at −20° C. and were used within 5 days of reconstitution. The study design consisted of three groups of 10 animals; group 1 included 10 SHR rats who received 5-aza (SH R-5-aza); group 2 included 10 SHR rats who received PBS vehicle (SHR-V); group 3 included 10 WKY rats who received PBS vehicle (WKY-V). All rats were housed in the animal facility under identical conditions, with a 12 hour light-dark cycle.

For assay [6] the test system is unchanged. The assay can be described thus: Cardiac tissue gene expression of MYBP-C and ACTA1 by quantitative real-time PCR. It is filed as in vivo, rat. On the procedure: FIGS. 17 and 18 depict the effect of 5AZA treatment on cardiac expression levels of MYBP-C and ACTA1. Gene expression levels of MYBP-C and ACTA1 were assessed using quantitative real-time PCR in the cardiac tissue of SHR-V and SHR-AZA. […] Results represent mean and standard error of the mean. * p<0.05, *** p<0.001.
as §1
A general note: Real-time PCR tracks product formation cycle by cycle.

Another assay has as its system cardiac myoblast cells. The assay can be described thus: Cardiac myoblast gene expression of MYBP-C and ACTA1 in vitro by real-time PCR. The class given is cell-based. The settings on record: 4 day treatment. On the procedure: Confirmation of the impact of DNA methylation inhibitors can up-regulate the expression levels of MYBP-C and ACTA1 was assessed in vitro using cardiac myoblast cells. Cells were grown in culture for 4 days either in the presence or absence of 5-azacytidine (5AZA) or 5-aza-2-deoxycytidine (5AZA_DC). Gene expression was quantified using real-time PCR.

Assay [7] concerns HCF cells. Put plainly: DMOG treatment of HCF cells in normoxia (Western blot). The class given is cell-based, human. The settings on record: 1 mM DMOG, 24 hours. The protocol: Primary human cardiac fibroblast cells from the adult ventricle (HCF) were purchased from ScienCell Research Laboratories. Primary cells were derived from a single person. Until required for experiments, cells were cultured and maintained in Dulbecco's modified eagles medium (DMEM) (Gibco), supplemented with 10% Fetal Bovine Serum (Gibco) and penicillin-streptomycin antibiotics (Gibco) in a 5% CO2 humidified incubator kept at 37° C.
(§2) Where indicated, HCF cells were exposed to a 1% oxygen environment for up to 8 days using a hypoxic chamber (Coy Laboratories). The effects of 10 ng/ml recombinant TGFβ1 treatment (R&D Systems) under these conditions were investigated. When required, cells were treated for 24 hours with 1 mM of the prolyl hydroxylase inhibitor DMOG (Sigma) to simulate hypoxia through the induction of HIF under normoxic conditions.
Whole cell protein lysates were generated using RIPA Lysis Buffer (Millipore), containing a protease inhibitor cocktail (Roche). Nuclear protein extracts were obtained using the Ne-PeR Nuclear and Cytoplasmic extraction Reagents, according to manufacturer's instructions (Pierce Biotechnology). Protein concentrations were determined using the BCA Protein Assay Kit (Pierce). […]
(In general: A western blot detects proteins with antibodies after separation by electrophoresis.)

Assay [8] has as its system HCF cells. Put plainly: TGFβ1 treatment of HCF cells, quantitative real-time PCR. The class given is cell-based, human. The protocol: as §2
Gene expression changes were measured in HCF cells using QPCR as described in human cardiac tissue analysis methods section. RNA isolation from cells was achieved using NucleoSpin RNA II Kit (Macherey-Nagel). QPCR data was analysed using the delta delta CT method.

Setting [9] is: 10 ng/ml TGFβ1, 8 days hypoxia (1% oxygen).

Turning to `Nc1ncn([C@@H]2O[C@H](CO)[C@@H](O)[C@H]2O)c(=O)n1` [5AZA, 5-azacytidine], the “pro-fibrotic impact of hypoxia” value in the assay with HCF cells [1] (FIGS. 7A-7C) is listed as “reverses”. The cardiac hypertrophy result in assay [2] was “significant reduction”. For the same compound, in [2] (10 mg/kg), the “E prime (E′), diastolic dysfunction” value is on record as “significantly approved; also recorded: significantly improved”; the “Ejection fraction (EF)” value is “significantly increased; also recorded: significantly improved”; the “interventricular septum diameter (in diastole)” value was “significant reduction; also recorded: reduced”; the “left ventricular mass index (LVMi)” value was “significant reduction; also recorded: reduced”. The “total collagen / collagen deposition within the myocardium (hydroxyproline)” value in [3] is recorded as “significant reduction”. Besides, in assay [4], the perivascular collagen result is reported as “significantly reduced; also recorded: significant decrease”. The myocyte area result in assay [5] is “significantly smaller; also recorded: significant decrease”. Besides, in assay [6] (SHR animals treated with 5AZA), the “ACTA1 expression in cardiac tissue” value is given as “significant increase” and the “MYBP-C expression within the myocardium” value is “significant increase”. In addition, in assay [6] (SHR-AZA vs SHR-V), the “increase in ACTA1 gene expression in cardiac tissue” value was 4 fold and the “increase in MYBP-C gene expression in cardiac tissue” value is listed as 4 fold. For the same compound, in the assay with cardiac myoblast cells, the “ACTA1 gene expression in cardiac myoblast cells” value was “significant increase” and the “MYBP-C gene expression in cardiac myoblast cells” value is on record as “significant increase”.
Turning to `Nc1ncn([C@H]2C[C@H](O)[C@@H](CO)O2)c(=O)n1` [5AZA_DC, 5-aza-2′-deoxycytidine], in the assay with HCF cells [1], the “expression of ASMA” value is “reduced expression”, the “expression of collagen 1” value was “reduced expression”, the “expression of collagen 3” value was “reduced expression” and the “pro-fibrotic effects of / responses to TGFβ” value is reported as “significantly reduced”. Moreover, in the assay on HCF cells [1] (listed as 5-aza2dC), the “expression of ASMA” value is “significantly reduced”, the “expression of collagen 1” value is on record as “significantly reduced”, the “expression of collagen 3” value was “significantly reduced” and the “pro-fibrotic effects of / responses to TGFβ” value is “inhibited”. Further, in the assay with cardiac myoblast cells, the “ACTA1 gene expression in cardiac myoblast cells” value is reported as “significant increase” and the “MYBP-C gene expression in cardiac myoblast cells” value is listed as “significant increase”.
Turning to `COC(=O)CNC(=O)C(=O)OC` [DMOG], in the assay on HCF cells [7], the “expression of DNMT3B” value is on record as “increased expression” and the “nuclear HIF-1α protein expression” value is on record as “stabilises”.
Regarding “TGFβ1: human recombinant transforming growth factor beta 1, pro-fibrotic cytokine”, the values for the ASMA gene expression result with HCF cells [8] (10 ng/ml TGFβ1) and in the assay on HCF cells [8] (setting [9]) were “significantly increased” and “further enhanced”, respectively. The entries for the “collagen 1 gene expression” value with HCF cells [8] (10 ng/ml TGFβ1) and with HCF cells [8] (setting [9]) were “significantly increased” and “further enhanced”, respectively.
